Assay results from patent publication US20250127790A1, “COMBINATION THERAPY USING VPS34 INHIBITORS” (Deciphera Pharmaceuticals, LLC, priority 2021, published 2025).

Key:
[1] = test system: A-498 renal cell carcinoma cells; assay: qRT-PCR with siRNA knockdown of STING pathway genes, A-498 cells; type: cell-based, Human; settings: 24 h; for increase in mRNA expression of CCL5 / increase in mRNA expression of CXCL10 / increase in mRNA expression of IFNB1 / increase in mRNA expression of IRF7 / IFNB1, IRF7, CCL5 and CXCL10 expression with siRNA knockdown of CGAS / IFNB1, IRF7, CCL5 and CXCL10 expression with siRNA knockdown of STING: 2 μM; for IFNB1, IRF7, CCL5 and CXCL10 expression with siRNA knockdown of CGAS: siCGAS; for IFNB1, IRF7, CCL5 and CXCL10 expression with siRNA knockdown of CGAS / IFNB1, IRF7, CCL5 and CXCL10 expression with siRNA knockdown of STING / IFNB1, IRF7, CCL5 or CXCL10 expression with siRNA knockdown of TBK1: vs compound alone; for IFNB1, IRF7, CCL5 and CXCL10 expression with siRNA knockdown of STING: siSTING; for IFNB1, IRF7, CCL5 or CXCL10 expression with siRNA knockdown of TBK1: siTBK1, 2 μM
Method: A-498 cells were grown in Minimal Essential Medium containing 10% fetal bovine serum. Cells were then incubated for 2 days at 37 degrees Celsius, 5% CO2, and 95% humidity. A498 cells were transfected with scrambled siRNA control (siSCR) or siRNA targeting TBK1 (siTBK1), STING (siSTING) or CGAS (siCGAS). After 48 h cells were treated with DMSO or 2 μM of VPS34 inhibitor (Compound 1 or Compound 2) for 24 h. Cells were washed with PBS and RNA was isolated using the PureLink RNA kit (#12183018A, Thermo Fisher Scientific) according to the manufacturer's protocol. Genomic DNA was removed using DNA-binding columns (RNeasy plus kit, #74134, Qiagen) and/or DNase treatment (#12185010, Thermo Fisher Scientific). RNA was quantified using NanoDrop (Thermo Fisher Scientific) and 50 ng/μL RNA was used for cDNA synthesis with SuperScript IV VILO Master Mix (#11756050, Thermo Fisher Scientific). Quantitative RT-PCR (qRT-PCR) was run with diluted cDNA (1:25 or 1:12.5), PowerUp SYBR Green Master Mix (#A25741, Thermo Fisher Scientific), and 200 nM primers (see below) on a CFX Connect RT-PCR system (BioRad). Data was analyzed using the ΔΔCT method. Results are mean±SEM of three independent experiments.

[2] = test system: CT26 colorectal cancer cells; assay: Cytokine secretion assay, combination with cGAMP, CT26 cells; type: cell-based, mouse; settings: 24 hours, 5 μM Compound 1 or 10 μM Compound 2, 10 mg/mL cGAMP
Method: (§1) CT26 cells were treated for 24 hours with DMSO or VPS34 inhibitors (5 μM Compound 1 or 10 μM Compound 2) in combination with 10 mg/mL STING agonist cGAMP (green bars). Cells were washed with PBS and RNA was isolated using the PureLink RNA kit (#12183018A, Thermo Fisher Scientific) according to the manufacturer's protocol. Genomic DNA was removed using DNA-binding columns (RNeasy plus kit, #74134, Qiagen) and/or DNase treatment (#12185010, Thermo Fisher Scientific). RNA was quantified using NanoDrop (Thermo Fisher Scientific) and 50 ng/μL RNA was used for cDNA synthesis with SuperScript IV VILO Master Mix (#11756050, Thermo Fisher Scientific). Quantitative RT-PCR (qRT-PCR) was run with diluted cDNA (1:25 or 1:12.5), PowerUp SYBR Green Master Mix (#A25741, Thermo Fisher Scientific), and 200 nM primers (see below) on a CFX Connect RT-PCR system (BioRad). Data was analyzed using the ΔΔCT method. Results are mean±SEM of three independent experiments.
Cell culture medium was centrifuged at 1600 rpm for 10 min at 4° C. and obtained supernatant stored at −80° C. Cytokine levels were quantified using following Meso Scale Discovery (MSD) assays: mouse U-PLEX RANTES/CCL5 (#K152A2K) and U-PLEX IP-10/CXCL10 (#K152UFK). Assays were run on the SECTOR Quickplex Imager and analyzed using Discovery Workbench version 4.0 (MSD).

[3] = test system: 786-O renal cell carcinoma cells; assay: Cytokine secretion assay (MSD) with siRNA knockdown, 786-O cells; type: cell-based, human; settings: 24 h; for CCL5 and CXCL10 secretion with siRNA knockdown of CGAS: siCGAS; for CCL5 and CXCL10 secretion with siRNA knockdown of CGAS / increase in CCL5 protein secretion / increase in CXCL10 protein secretion / CCL5 and CXCL10 protein secretion with siRNA knockdown of STING: 2 μM; for CCL5 and CXCL10 secretion with siRNA knockdown of CGAS / CCL5 and CXCL10 protein secretion with siRNA knockdown of STING / secretion of CCL5 or CXCL10 with siRNA knockdown of TBK1: vs compound alone; for increase in CCL5 protein secretion / increase in CXCL10 protein secretion: siRNA against non-specific controls (siSCR); for CCL5 and CXCL10 protein secretion with siRNA knockdown of STING: siSTING; for secretion of CCL5 or CXCL10 with siRNA knockdown of TBK1: siTBK1, 2 μM
Method: 786-O cells were transfected with scrambled siRNA control (siSCR) or siRNA targeting TBK1 (siTBK1), STING (siSTING) or CGAS (siCGAS). After 48 h cells were treated with DMSO or 2 μM of VPS34 inhibitor (Compound 1 or Compound 2) for 24 h. Cell culture medium was centrifuged at 1600 rpm for 10 min at 4° C. and obtained supernatant stored at −80° C. Cytokine levels were quantified using following Meso Scale Discovery (MSD) assays: human R-PLEX RANTES/CCL5 (#F21ZN), U-PLEX CXCL10/IP-10 (#K151UFK). Assays were run on the SECTOR Quickplex Imager and analyzed using Discovery Workbench version 4.0 (MSD).

YUMM 1.7 melanoma cells = assay: qRT-PCR, combination with cGAMP, YUMM1.7 cells; type: cell-based, Mouse; settings: 24 hours, 5 μM Compound 1 or 10 μM Compound 2, 10 mg/ml cGAMP
Method: as §1, with “YUMM1.7” for “CT26”, “mg/ml” for “mg/mL”

Structure (SMILES) | increase in mRNA expression of CCL5 [1] [fold] | increase in mRNA expression of CXCL10 [1] [fold] | increase in mRNA expression of IFNB1 [1] [fold] | increase in mRNA expression of IRF7 [1] [fold] | IFNB1, IRF7, CCL5 and CXCL10 expression with siRNA knockdown of CGAS [1] | IFNB1, IRF7, CCL5 and CXCL10 expression with siRNA knockdown of STING [1] | IFNB1, IRF7, CCL5 or CXCL10 expression with siRNA knockdown of TBK1 [1] | CCL5 protein secretion [2] | CXCL10 protein secretion [2] | CCL5 and CXCL10 secretion with siRNA knockdown of CGAS [3] | increase in CCL5 protein secretion [3] [fold] | increase in CXCL10 protein secretion [3] [fold] | CCL5 and CXCL10 protein secretion with siRNA knockdown of STING [3] | secretion of CCL5 or CXCL10 with siRNA knockdown of TBK1 [3] | CCL5 mRNA expression (YUMM 1.7 melanoma cells) | CXCL10 mRNA expression (YUMM 1.7 melanoma cells)
C[C@@H]1COCCN1c1cc(N2CCCC[C@@H]2C(F)(F)F)[nH]c(=O)c1 [Compound 1, 4-((R)-3-methylmorpholino)-6-((R)-2-(trifluoromethyl)piperidin-1-yl)pyridin-2(1H)-one] | > 4 | > 5 | > 5 | ~4 | complete ablation | complete ablation | moderate or negligible changes | increased | increased | near complete ablation | ~2 | ~2 | near complete ablation | decreased secretion | increased | did not increase
C[C@@H]1COCCN1c1cc(=O)n2c(n1)N(Cc1cncc(Cl)c1)[C@H](C(F)(F)F)CC2 [Compound 2, (S)-9-((5-chloropyridin-3-yl)methyl)-2-((R)-3-methylmorpholino)-8-(trifluoromethyl)-6,7,8,9-tetrahydro-4H-pyrimido[1,2-a]pyrimidin-4-one] | ~8 | ~10 | > 10 | ~7 | complete ablation | complete ablation | moderate or negligible changes | increased | increased | near complete ablation | ~2 | ~2 | near complete ablation | decreased secretion | increased | did not increase
